Type in all cases: functional
One assay has as its system HOP-92. Description: Cytotoxicity against Homo sapiens (human) HOP92 cells assessed as cell growth at 10 uM after 48 hr by SRB assay relative to control. As to conditions: HOP-92, 48 h, read-out: Activity. For orientation: The SRB assay estimates cell density from bound dye.
The subject of a further assay is BT-549. Description: Cytotoxicity against Homo sapiens (human) BT549 cells after 48 hr by SRB assay. As to conditions: BT-549, 48 h.
In a further assay the test system is SF-539. Description: Cytotoxicity against Homo sapiens (human) SF539 cells after 48 hr by SRB assay. As to conditions: SF-539, 48 h.
Another assay relates to SK-MEL-5. Description: Cytotoxicity against Homo sapiens (human) SK-MEL-5 cells assessed as cell growth at 10 uM after 48 hr by SRB assay relative to control. As to conditions: SK-MEL-5, 48 h, read-out: Activity.
In the next assay the test system is UACC-62. Description: Cytotoxicity against Homo sapiens (human) UACC62 cells after 48 hr by SRB assay. As to conditions: UACC-62, 48 h.
The next assay has as its system Malme-3M. Description: Cytotoxicity against Homo sapiens (human) MALME-3M cells after 48 hr by SRB assay.
The subject of a further assay is MCF7. Kind of assay: Cytotoxicity against Homo sapiens (human) MCF7 cells after 48 hr by SRB assay. As to conditions: MCF7, 48 h.
Setting [1] is: read-out: pLC50 (the source's name) (converted).

Regarding `COc1ccccc1CNC(=O)CSc1nc2ccccc2c2nc(=O)c(-c3ccccc3)nn12`, the growth at 10 µM with HOP-92 was found to be 26.2%. For the same molecule, the figures for the 50% growth inhibitory concentration (GI50) in the assay with BT-549 and with SF-539 were 2.14 µM and 1.82 µM, respectively. For the same molecule, the LC50 in the assay with BT-549 is 74.1 µM. Besides, the TGI in the assay on BT-549 (read-out: pTGI (converted)) was 3.98 µM; with SF-539 (read-out: pTGI) it was more than 100 µM. Further, the CC50 in the assay with SF-539 (setting [1]) was more than 100 µM.

For `COc1ccc(-c2nn3c(SCC(=O)Nc4ccccc4Cl)nc4ccccc4c3nc2=O)cc1`, the growth at 10 µM with SK-MEL-5 is 41.4%. Moreover, the 50% growth inhibitory concentration (GI50) with UACC-62 is 2.75 µM; in the assay with Malme-3M, 1.86 µM; with MCF7, 2.34 µM. Besides, the CC50 in the assay with UACC-62 (setting [1]), in the assay with Malme-3M (setting [1]) and with MCF7 (setting [1]) was more than 100 µM throughout. In addition, the TGI in the assay on UACC-62 (read-out: pTGI (converted)) was 67.6 µM; in the assay with Malme-3M (read-out: pTGI (converted)) it was 7.94 µM; with MCF7 (read-out: pTGI), more than 100 µM.

The term GI50 denotes the concentration that inhibits growth by half. Low values mean greater sensitivity of the cells, high ones lower sensitivity of the cells. As a reminder, the LC50 is the concentration that kills 50% of the test population.

Values taken from ChEMBL document CHEMBL3045943, “Novel N-aryl(alkaryl)-2-[(3-R-2-oxo-2H-[1,2,4]triazino[2,3-c]quinazoline-6-yl)thio]acetamides: synthesis, cytotoxicity, anticancer activity, COMPARE analysis and docking” (2013).
